Results reported in publication PMC10539439 (Pharmacological Reports, 2023).
Several values for one entry are separate records, joined by “and”; a condition that tells them apart may be missing. Equal entries are not always repeated.

Assay: Blood pressure of anaesthetized normotensive rats
Type: in vivo, rat
Method: Eighteen normotensive rats were anaesthetized with thiopental (70 mg/kg) by ip injection. The left carotid artery was cannulated with tubing filled with heparin solution in saline to facilitate pressure measurements using Apparatus PowerLab 4/35 (ADInstruments, Australia). Blood pressure was measured: before ip administration of 4-OH-Guanabenz at the doses of 2 or 5 or 10 mg/kg b.w. or water – time 0 min (control pressure) and continuously during the next 60 min.

[1] = 2 mg/kg, time 0, individual rats 1-6
[2] = 2 mg/kg, time 5, individual rats 1-6
[3] = 2 mg/kg, time 10, individual rats 1-6
[4] = 2 mg/kg, time 15, individual rats 1-6
[5] = 2 mg/kg, time 20, individual rats 1-6
[6] = 2 mg/kg, time 30, individual rats 1-6
[7] = 2 mg/kg, time 40, individual rats 1-6
[8] = 2 mg/kg, time 50, individual rats 1-6
[9] = 2 mg/kg, time 60, individual rats 1-6
[10] = 5 mg/kg, time 0, individual rats 1-6
[11] = 5 mg/kg, time 5, individual rats 1-6
[12] = 5 mg/kg, time 10, individual rats 1-6
[13] = 5 mg/kg, time 15, individual rats 1-6
[14] = 5 mg/kg, time 20, individual rats 1-6
[15] = 5 mg/kg, time 30, individual rats 1-6
[16] = 5 mg/kg, time 40, individual rats 1-6
[17] = 5 mg/kg, time 50, individual rats 1-6
[18] = 5 mg/kg, time 60, individual rats 1-6
[19] = 10 mg/kg, time not printed (1st of 9 lines), individual rats 1-6
[20] = 10 mg/kg, time not printed (2nd of 9 lines), individual rats 1-6
[21] = 10 mg/kg, time not printed (3rd of 9 lines), individual rats 1-6
[22] = 10 mg/kg, time not printed (4th of 9 lines), individual rats 1-6
[23] = 10 mg/kg, time not printed (5th of 9 lines), individual rats 1-6
[24] = 10 mg/kg, time not printed (6th of 9 lines), individual rats 1-6
[25] = 10 mg/kg, time not printed (7th of 9 lines), individual rats 1-6
[26] = 10 mg/kg, time not printed (8th of 9 lines), individual rats 1-6
[27] = 10 mg/kg, time not printed (9th of 9 lines), individual rats 1-6

With `N=C(N)N/N=C/c1c(Cl)cc(O)cc1Cl` [4HOGuanabenz] the diastolic pressure [1] was 104 mmHg and 92 mmHg and 99 mmHg and 108 mmHg and 82 mmHg and 91 mmHg, the systolic pressure [1] was 135 mmHg and 127 mmHg and 134 mmHg and 140 mmHg and 114 mmHg and 116 mmHg and the diastolic pressure [2] was 110 mmHg and 93 mmHg (2×) and 102 mmHg and 104 mmHg and 89 mmHg. For the same compound, the systolic pressure [2] was 140 mmHg and 125 mmHg and 136 mmHg and 137 mmHg and 119 mmHg and 116 mmHg, the diastolic pressure [3] was 105 mmHg and 88 mmHg (2×) and 96 mmHg and 99 mmHg and 92 mmHg and the systolic pressure [3] was 134 mmHg and 120 mmHg and 130 mmHg (2×) and 119 mmHg and 116 mmHg. For the same compound, the diastolic pressure [4] was 103 mmHg and 86 mmHg (2×) and 94 mmHg and 99 mmHg and 89 mmHg, the systolic pressure [4] was 133 mmHg and 117 mmHg and 128 mmHg and 129 mmHg and 115 mmHg and 114 mmHg and the diastolic pressure [5] was 99 mmHg and 84 mmHg and 92 mmHg and 96 mmHg and 86 mmHg and 85 mmHg. For the same compound, the systolic pressure [5] was 128 mmHg and 115 mmHg and 124 mmHg and 125 mmHg and 112 mmHg and 111 mmHg, the diastolic pressure [6] was 96 mmHg and 85 mmHg and 91 mmHg and 94 mmHg and 82 mmHg and 86 mmHg and the systolic pressure [6] was 125 mmHg and 111 mmHg and 120 mmHg and 121 mmHg and 106 mmHg and 107 mmHg. For the same compound, the diastolic pressure [7] was 101 mmHg and 86 mmHg and 90 mmHg and 93 mmHg and 79 mmHg and 85 mmHg, the systolic pressure [7] was 131 mmHg and 116 mmHg and 119 mmHg (2×) and 104 mmHg and 105 mmHg and the diastolic pressure [8] was 99 mmHg and 83 mmHg and 90 mmHg and 95 mmHg and 76 mmHg and 85 mmHg. For the same compound, the systolic pressure [8] was 129 mmHg and 110 mmHg and 116 mmHg and 124 mmHg and 101 mmHg and 104 mmHg, the diastolic pressure [9] was 96 mmHg (2×) and 83 mmHg and 90 mmHg and 73 mmHg and 85 mmHg and the systolic pressure [9] was 125 mmHg and 111 mmHg and 118 mmHg and 122 mmHg and 98 mmHg and 103 mmHg. For the same compound, the diastolic pressure [10] was 73 mmHg and 104 mmHg and 91 mmHg and 101 mmHg and 95 mmHg and 99 mmHg, the systolic pressure [10] was 115 mmHg and 133 mmHg and 114 mmHg and 135 mmHg and 122 mmHg and 131 mmHg and the diastolic pressure [11] was 71 mmHg and 106 mmHg and 112 mmHg and 113 mmHg and 100 mmHg and 108 mmHg. For the same compound, the systolic pressure [11] was 105 mmHg and 136 mmHg and 150 mmHg and 144 mmHg and 133 mmHg and 145 mmHg, the diastolic pressure [12] was 63 mmHg and 92 mmHg and 98 mmHg (2×) and 101 mmHg and 90 mmHg and the systolic pressure [12] was 97 mmHg and 121 mmHg and 129 mmHg and 132 mmHg and 120 mmHg and 130 mmHg. The diastolic pressure [13] was 62 mmHg and 89 mmHg and 87 mmHg and 95 mmHg and 83 mmHg and 91 mmHg, the systolic pressure [13] was 94 mmHg and 117 mmHg and 115 mmHg and 125 mmHg and 110 mmHg and 121 mmHg and the diastolic pressure [14] was 61 mmHg and 89 mmHg and 85 mmHg and 95 mmHg and 79 mmHg and 91 mmHg. For the same compound, the systolic pressure [14] was 93 mmHg and 115 mmHg and 109 mmHg and 124 mmHg and 105 mmHg and 117 mmHg, the diastolic pressure [15] was 63 mmHg and 90 mmHg and 86 mmHg and 93 mmHg (2×) and 77 mmHg and the systolic pressure [15] was 92 mmHg and 117 mmHg and 108 mmHg and 122 mmHg and 103 mmHg and 121 mmHg. The diastolic pressure [16] was 64 mmHg and 87 mmHg and 89 mmHg and 98 mmHg and 78 mmHg and 94 mmHg, the systolic pressure [16] was 92 mmHg and 111 mmHg and 109 mmHg and 127 mmHg and 107 mmHg and 119 mmHg and the diastolic pressure [17] was 65 mmHg and 87 mmHg and 89 mmHg and 91 mmHg and 78 mmHg and 96 mmHg. For the same compound, the systolic pressure [17] was 91 mmHg and 112 mmHg and 110 mmHg and 115 mmHg and 102 mmHg and 124 mmHg, the diastolic pressure [18] was 67 mmHg and 88 mmHg and 84 mmHg and 91 mmHg and 83 mmHg and 93 mmHg and the systolic pressure [18] was 92 mmHg and 112 mmHg and 104 mmHg and 113 mmHg and 111 mmHg and 118 mmHg. The diastolic pressure [19] was 75 mmHg and 81 mmHg and 116 mmHg and 86 mmHg and 114 mmHg and 107 mmHg, the systolic pressure [19] was 113 mmHg and 125 mmHg and 158 mmHg and 100 mmHg and 145 mmHg and 140 mmHg and the diastolic pressure [20] was 95 mmHg and 98 mmHg and 122 mmHg and 99 mmHg and 117 mmHg and 109 mmHg. For the same compound, the systolic pressure [20] was 125 mmHg and 126 mmHg and 177 mmHg and 111 mmHg and 164 mmHg and 139 mmHg, the diastolic pressure [21] was 89 mmHg and 95 mmHg and 109 mmHg and 87 mmHg and 111 mmHg and 107 mmHg and the systolic pressure [21] was 115 mmHg and 124 mmHg and 150 mmHg and 101 mmHg and 151 mmHg and 134 mmHg. For the same compound, the diastolic pressure [22] was 86 mmHg and 95 mmHg and 106 mmHg and 84 mmHg and 107 mmHg and 103 mmHg, the systolic pressure [22] was 112 mmHg and 127 mmHg and 135 mmHg and 96 mmHg and 142 mmHg and 131 mmHg and the diastolic pressure [23] was 84 mmHg (2×) and 92 mmHg and 108 mmHg and 103 mmHg (2×). The systolic pressure [23] was 110 mmHg and 121 mmHg and 133 mmHg and 95 mmHg and 135 mmHg and 129 mmHg, the diastolic pressure [24] was 83 mmHg and 91 mmHg and 105 mmHg and 81 mmHg and 101 mmHg (2×) and the systolic pressure [24] was 108 mmHg and 123 mmHg and 135 mmHg and 91 mmHg and 132 mmHg and 127 mmHg. For the same compound, the diastolic pressure [25] was 82 mmHg and 88 mmHg and 96 mmHg and 80 mmHg and 99 mmHg and 101 mmHg, the systolic pressure [25] was 107 mmHg and 116 mmHg and 126 mmHg and 90 mmHg and 130 mmHg and 124 mmHg and the diastolic pressure [26] was 84 mmHg and 90 mmHg and 106 mmHg and 78 mmHg and 98 mmHg and 97 mmHg. For the same compound, the systolic pressure [26] was 107 mmHg and 121 mmHg and 134 mmHg and 87 mmHg and 129 mmHg and 122 mmHg, the diastolic pressure [27] was 83 mmHg and 92 mmHg and 99 mmHg and 78 mmHg and 101 mmHg and 98 mmHg and the systolic pressure [27] was 107 mmHg and 122 mmHg (2×) and 130 mmHg and 86 mmHg and 131 mmHg.
